Where “and” joins values, the source holds several entries; their conditions need not be identical. Identical values can stand only once. Like-named read-outs stand apart in the source and are kept apart here.
Assays:
[1] = target: T1, ELIC D113A/D158A (Dickeya chrysanthemi, UniProt P0C7B7, D113A/D158A/INS163G); assay: cell-based; assay type: cell-based, Erwinia chrysanthemi; conditions: D113A/D158A; for Slope: Schild plot slope; for pA / effects on the agonist dose-response curves in the double mutant: agonist cysteamine
T1 construct: expressed in transfected cells; host or cells: X. laevis oocytes
Experimental: (§1) Constructs containing the gene of either the WT or mutant channels preceded by the signal sequence of the chicken α7nAchR were cloned into the pTLN vector for expression in X. laevis oocytes. After linearization of the plasmid DNA by MluI, capped complementary RNA was transcribed with the mMessage mMachine kit (Ambion) and purified with the RNeasy kit (Qiagen). For expression, 1–50 ng of RNA was injected into defolliculated oocytes. Two-electrode voltage clamp measurements were performed 1 d after injection at 20°C (OC-725B, Warner Instrument Corp.). Currents were recorded in bath solutions containing 10 mM HEPES (pH 7), 130 mM NaCl, and the indicated concentrations of cysteamine and divalent cations. In case of solutions containing Zn^2+, cysteamine was replaced by propylamine. The membrane potential in all dose–response measurements was set to −40 mV. As ELIC is permeable to divalent cations, we tested if endogenous calcium-activated chloride channels affected our measurements. To chelate intracellular calcium ions, the oocytes were incubated for 15 to 30 min in bath solutions lacking divalent ions but containing 10 µM BAPTA-AM.

[2] = target: T2, ELIC WT (Dickeya chrysanthemi, UniProt P0C7B7, INS163G); assay: cell-based; assay type: cell-based, Erwinia chrysanthemi; conditions: for Slope: Schild plot slope; for Ki: Schild analysis, read-out: Ki app
T2 construct: expressed in transfected cells; host or cells: X. laevis oocytes (cRNA injection, pTLN vector)
Experimental: as §1

[3] = target: T3, ELIC R91A (Dickeya chrysanthemi, UniProt P0C7B7, INS163G/R91A); assay: Two-electrode voltage clamp, ELIC R91A in oocytes; assay type: cell-based, Erwinia chrysanthemi; conditions: for Slope: Schild plot slope; for pA: agonist cysteamine
T3 construct: expressed in transfected cells; host or cells: X. laevis oocytes
Experimental: as §1

[4] = target: T4, ELIC D86A (Dickeya chrysanthemi, UniProt P0C7B7, D86A/INS163G); assay: Two-electrode voltage clamp, ELIC D86A in oocytes; assay type: cell-based, Erwinia chrysanthemi
T4 construct: expressed in transfected cells; host or cells: X. laevis oocytes
Experimental: as §1

[5] = target: T5, ELIC S84A (Dickeya chrysanthemi, UniProt P0C7B7, INS163G/S84A); assay: Two-electrode voltage clamp, ELIC S84A in oocytes; assay type: cell-based, Erwinia chrysanthemi; conditions: S84A
T5 construct: expressed in transfected cells; host or cells: X. laevis oocytes
Experimental: as §1

[6] = target: T6, ELIC N251A (Dickeya chrysanthemi, UniProt P0C7B7, N250A); assay: Two-electrode voltage clamp, ELIC N251A in oocytes; assay type: cell-based, Erwinia chrysanthemi
T6 construct: expressed in transfected cells; host or cells: X. laevis oocytes
Experimental: as §1

[7] = target: T7, ELIC D113A (Dickeya chrysanthemi, UniProt P0C7B7, D113A/INS163G); assay: Two-electrode voltage clamp, ELIC D113A in oocytes; assay type: cell-based, Erwinia chrysanthemi
T7 construct: expressed in transfected cells; host or cells: X. laevis oocytes
Experimental: as §1

[8] = target: T8, ELIC D113N (Dickeya chrysanthemi, UniProt P0C7B7, D113N/INS163G); assay: Two-electrode voltage clamp, ELIC D113N in oocytes; assay type: cell-based, Erwinia chrysanthemi
T8 construct: expressed in transfected cells; host or cells: X. laevis oocytes
Experimental: as §1

[9] = target: T9, ELIC D158A (Dickeya chrysanthemi, UniProt P0C7B7, D158A/INS163G); assay: Two-electrode voltage clamp, ELIC D158A in oocytes; assay type: cell-based, Erwinia chrysanthemi
T9 construct: expressed in transfected cells; host or cells: X. laevis oocytes
Experimental: as §1

[10] = target: T10, ELIC D158N (Dickeya chrysanthemi, UniProt P0C7B7, D158N/INS163G); assay: Two-electrode voltage clamp, ELIC D158N in oocytes; assay type: cell-based, Erwinia chrysanthemi
T10 construct: expressed in transfected cells; host or cells: X. laevis oocytes
Experimental: as §1

[11] = target: T11, ELIC E150A (Dickeya chrysanthemi, UniProt P0C7B7, E150A/INS163G); assay: Two-electrode voltage clamp, ELIC E150A in oocytes; assay type: cell-based, Erwinia chrysanthemi
T11 construct: expressed in transfected cells; host or cells: X. laevis oocytes
Experimental: as §1

[12] = target: T12, ELIC E150Q (Dickeya chrysanthemi, UniProt P0C7B7, E150Q/INS163G); assay: Two-electrode voltage clamp, ELIC E150Q in oocytes; assay type: cell-based, Erwinia chrysanthemi
T12 construct: expressed in transfected cells; host or cells: X. laevis oocytes
Experimental: as §1

[13] = target: T13, ELIC (Dickeya chrysanthemi, UniProt P0C7B7, INS163G); conditions: high Ca^2+ concentration; cited from earlier work
T13 construct: expressed in transfected cells; host or cells: HEK 293 cells (ATCC CRL-1573), pcDNA3

[14] = WT, Schild plot x-intercept (log of mM), agonist cysteamine, −40 mV
[15] = Schild analysis, read-out: Ki app

Which Slope [1] does the source give for `CC(=O)OCC[N+](C)(C)C` [ACh, acetylcholine] here?
The Slope was 0.8±0.1.

And the pA [1]?
The pA was 0.32±0.06.

And the pA ([2]; WT/1 mM Ca^2+ present, agonist cysteamine)?
Its pA is 0.35±0.01.

And the Slope ([2]; WT/1 mM Ca^2+)?
The Slope was 1.1±0.01.

What about the pA ([2]; WT/.25 mM Ca^2+ present, agonist cysteamine) of the same compound?
The pA was 0.06±0.06.

And the Slope ([2]; WT/.25 mM Ca^2+)?
Its Slope is 0.9±0.1.

What about the pA ([2]; WT/.5 mM Ca^2+ present, agonist cysteamine) of the same compound?
The pA was 0.11±0.09.

What about the Slope ([2]; WT/.5 mM Ca^2+) of the same compound?
The Slope was 0.9±0.01.

And the Slope ([2]; WT, agonist cysteamine)?
Its Slope is 1.0±0.1.

And the Slope ([2]; WT, agonist cysteamine, listed as acetylcholine)?
Its Slope is “unity”.

What about the pA [2, 14] of the same compound?
The pA was 0.21±0.06.

What about the “increase in the Schild affinity in the mutant R91A” value ([3]; R91A versus WT) of the same compound?
Its value is 10 fold.

And the Slope ([3]; R91A)?
The Slope was 0.7±0.1.

And the pA ([3]; R91A)?
The pA was −0.77±0.05.

For `[Ba+2]` [Ba^2+, barium], which Ki [1, 15] is on record?
Its Ki is 6500 µM.

And the Slope [1]?
Its Slope is 0.6±0.02.

And the “effects on the agonist dose-response curves in the double mutant” value [1]?
Its value is “virtually abolishes”.

What about the pA [1] of the same compound?
Its pA is 0.81±0.02.

What about the Ki ([2]; WT, agonist cysteamine) of the same compound?
Its Ki is 850 µM.

And the Slope ([2]; WT, agonist cysteamine)?
The Slope was 1.1±0.03.

What about the pA [2, 14] of the same compound?
The pA was −0.07±0.01.

Which results are given for `[Ca+2]` [Ca^2+, calcium]?
effects on the agonist dose-response curves in the double mutant [1]: virtually abolishes; reduction of maximum agonist response ([2]; 5 mM Ca^2+, saturating cysteamine, −40 mV): 55%; pA ([2]; WT/1 mM ACh present, agonist cysteamine): −0.65±0.01; Ki ([2]; WT/1 mM ACh): 220 µM; Slope ([2]; WT/1 mM ACh): 0.9±0.02; pA ([2]; WT/BAPTA (BAPTA-AM-treated oocytes), agonist cysteamine): −0.69±0.11; Ki ([2]; WT/BAPTA): 200 µM; Slope ([2]; WT/BAPTA): 1.0±0.3; Ki ([2]; WT, agonist cysteamine): 260 µM; Slope ([2]; WT, agonist cysteamine): 0.8 and 0.8±0.05; pA [2, 14]: −0.57±0.03; IC50 ([2]; WT, maximum cysteamine response, read-out: IC50 of decline of maximum current response (Langmuir equation)): 6000 µM; decrease in the agonist maximum response ([2]; at 6 mM calcium, channel block subtracted): about 50%; Ki ([3]; R91A, Schild analysis, read-out: Ki app): 210 µM; Slope ([3]; R91A): 0.7±0.1; pA ([3]; R91A): −0.69±0.03; Ki [4, 15]: 250 µM; Slope ([4]; Schild plot slope): 0.8±0.1; pA ([4]; agonist cysteamine): −0.60±0.11; Ki [5, 15]: 150 µM; Slope ([5]; Schild plot slope): 0.6±0.2; pA ([5]; agonist cysteamine): −0.83±0.14; Ki [6, 15]: 530 µM; Slope ([6]; Schild plot slope): 0.9±0.2; pA ([6]; agonist cysteamine): −0.27±0.19; Ki [7, 15]: 4900 µM; Slope ([7]; Schild plot slope): 1.0±0.3; pA ([7]; agonist cysteamine): 0.69±0.04; Ki [8, 15]: 950 µM; Slope ([8]; Schild plot slope): 1.0±0.01; pA ([8]; agonist cysteamine): −0.02±0.08; Ki [9, 15]: 5400 µM; Slope ([9]; Schild plot slope): 1.2±0.1; pA ([9]; agonist cysteamine): 0.74±0.01; Ki [10, 15]: 3200 µM; Slope ([10]; Schild plot slope): 0.5±0.2; pA ([10]; agonist cysteamine): 0.50±0.17; Ki [11, 15]: 1700 µM; Slope ([11]; Schild plot slope): 1.0±0.2; pA ([11]; agonist cysteamine): 0.23±0.12; Ki [12, 15]: 1200 µM; Slope ([12]; Schild plot slope): 0.9±0.3; pA ([12]; agonist cysteamine): 0.09±0.20; maximum decrease of single channel currents [13]: about 50%

What does the source list for `[Mg+2]` [Mg^2+]?
Ki ([2]; WT, agonist cysteamine): 430 µM; Slope ([2]; WT, agonist cysteamine): 0.9±0.01; pA [2, 14]: −0.36±0.02

From paper PMC3502511, “Inhibition of the Prokaryotic Pentameric Ligand-Gated Ion Channel ELIC by Divalent Cations” (PLoS Biology, 2012)
